In patent publication US11299715B2, “Use of iNOS inhibitors to increase viral yield in culture” (priority 2013, dated 2022):

What was measured:
wtHSV-1 McIntyre strain = wtHSV-1 McIntyre strain propagation in 293, HeLa and Vero cells with ATA; assay type: cell-based, HSV-1
From the text: The wtHSV-1 KOS strain and the ICP27-deficient derivatives of the wtHSV-1 KOS strain: vectors d27-1 (Rice and Knipe, J. Virol. (1990) 64:1704-1715), rHSV-rep2/cap2 and rHSV-EGFP (Kang et al., Gene Ther. (2009) 16:229-239) and their producer ICP27-complementing V27 cell line were obtained from AGTC (Alachua, Fla.). The wtHSV-1 MacIntyre strain, purchased from Advanced Biotechnologies Inc. (ABI, Columbia Md.) and wtHSV-1 KOS strain were propagated in Vero, 293 or HeLa cell lines. Infectious vector particles were harvested 72 hr postinfection by recovering culture supernatant. The titers of HSV-1 stocks in DNase resistant particles/ml (DRP/ml) were determined by Taqman assay. Viral genomes within crude culture medium were quantified via treatment in the presence of DNase I (50 U/ml final; Promega) at 37° C. for 60 min, followed by proteinase K (Invitrogen) digestion (1 U/ml) at 50° C. for 60 min, and then denatured at 95° C. for 30 min. Linearized plasmid pZero 195 UL36 (obtained from AGTC, Inc., Alachua, Fla.) was used to generate standard curves.
ATA (Sigma-A1895 Aurintricarboxylic acid practical grade, ≥85% (titration), powder) stock solution was generated as 500 μM concentration in 100 mM sodium bicarbonate water solution. ATA stock solution was further diluted in DMEM+/−10% fetal bovine serum (FBS, Hyclone, Waltham, Mass.) into concentration ranges of […] ATA (8.5-21 μgATA/ml). The HSV-1 infection at multiplicity of infection of 0.15 (MOI=0.15) (typically 6×10^5 cells in a 6-well plate) was performed in 40% (⅖ vol) of the total final media volume for 1-2 hrs and the remaining media (60% or ⅗ of the total final volume) was added during the dilution step. The cells were then incubated 72 hours and supernatant harvested to perform forming units per milliliter (PFU/ml) and DRP/ml titer assays.
Supernatants containing virus were harvested after three days as described above. […] Finally, ATA also appeared to inhibit both types of HSV-1 viruses in HeLa cells. Two-way ANOVA; Bonferroni test; −ATA vs. +ATA: ***: p<0.001, ns: p>0.05; n=4 independent experiments.
For statistical calculations, a larger study with a set of ten independent experiments (n=10) was conducted in 6-well plates with or without ATA added during the infection step (Step 1) comparing replication-deficient d27-GFP and also wtHSV-1 McIntyre strain in order to investigate, whether ATA could increase the titer in the wtHSV-1 strain as well (FIG. 4B). ATA was added at […] to confluent cell monolayers, V27 cells for d27-1 or 293 cells for wtHSV-1 McIntyre, during the infection step (Step 1) and the cells were infected with vectors at MOI=0.15 while ATA was diluted 1 hr later to a final […] concentration.
In order to illuminate the ATA mechanism of action by human genome array and the fact that Vero and V27 are monkey-derived cell lines, wtHSV-1 propagation was tested in several human cell lines (FIGS. 4A-4B). A propagation of two wild type HSV-1 (wtHSV-1) strains, KOS and McIntyre, were compared in three cell lines: human embryonic kidney 293 (293 cells), human cervical cancer HeLa cells and African green monkey kidney epithelial Vero cells. The experiments were carried out in 10% FBS-containing media following the ATA I protocol scheme, where 50 μM ATA was supplemented during the infection step and further diluted to 20 μM ATA concentration (see Material and Methods).

[1] = SABiosciences (QIAGEN) Jak-Stat RT-PCR Microarray in 293 cells; assay type: cell-based, human; settings: listed as printed as NOS1, 240911_at
Experimental: 6×10e5 293 cells (from AGTC) were infected with wtHSV-1 McIntyre strain at MOI 1 in the presence of DMEM & 10% FBS with or without 50 uM ATA and 1-2 hours and diluted to 40% with DMEM & 10% FBS (final ATA concentration of 20 uM). Triplicate total RNA samples were harvested 24 hrs later using Qiagen RNeasy mini kit and DNase treated on the column and eluted. Eluate RNA triplicate samples were combined and photospectrometer O.D. readings were performed on the eluate at 260 and 280 nm to determine concentration. Sample RNA was converted into template cDNA using SABiosciences RT2 first strand kit. The cDNA was then used in the Human JAK/STAT Signaling Pathway PCR Array (PAHS-039A).

With O=C(O)C1=CC(=C(c2ccc(O)c(C(=O)O)c2)c2ccc(O)c(C(=O)O)c2)C=CC1=O [ATA, 5-((3-carboxy-4-hydroxyphenyl)(3-carboxy-4-oxo-2,5-cyclohexadien-1-ylidene)methyl)-2-hydroxybenzoic acid] the “wtHSV-1 McIntyre titers in 293 cells” value (wtHSV-1 McIntyre strain; 50 μM ATA at Step 1, 20 μM after Step 2, 293 cells) was “reached the highest titers”, the “propagation of HSV-1 McIntyre in HeLa cells” value (wtHSV-1 McIntyre strain; 50 μM ATA at Step 1, 20 μM after Step 2, HeLa cells) was “inhibit” and the “yield of wtHSV-1 McIntyre in Vero cells” value (wtHSV-1 McIntyre strain; 50 μM ATA at Step 1, 20 μM after Step 2, Vero cells, 10% FBS) was “increased”. For the same compound, the “wtHSV-1 McIntyre virus titer in 293 cells” value (wtHSV-1 McIntyre strain; 50 μM ATA at infection, diluted to 20 μM, 10% FBS, n=4, without ATA 1.4×10^8) was 1.2×10^9 DRP/ml, the “increase of wtHSV-1 McIntyre titer after ATA addition” value (wtHSV-1 McIntyre strain; 293 cells, 6-well plates, n=10, ATA 50 μM at Step 1, final 20 μM, MOI 0.15) was 9.1 times and the “wtHSV-1 McIntyre titer after ATA addition” value (wtHSV-1 McIntyre strain; 293 cells, n=10, ATA 50 μM at Step 1, final 20 μM, without ATA 3.3×10^8) was 1.0×10^9 DRP/ml. For the same compound, the “293 or Vero titers with ATA, McIntyre” value (wtHSV-1 McIntyre strain; summary statement) was “up to 1×10^9 DRP/ml”, the “increase of wt HSV-1 McIntyre yields” value (wtHSV-1 McIntyre strain; summary statement) was 1 log and the “expression, ATA (Jak-Stat RT-PCR Microarray)” value ([1]; ATA alone) was 1.02. For the same compound, the “expression, HSV + ATA (Jak-Stat RT-PCR Microarray)” value ([1]; HSV + ATA, HSV alone 1.71) was 1.5.
